US11420975B2, “Substituted imidazo[1,5-a]pyrazines as Bruton's tyrosine kinase inhibitors” (TRANSTHERA SCIENCES (NANJING), INC., priority 2018, dated 2022)

What was measured:
[1] = tested on: TMD-8; assay: In vitro tumor cell proliferation inhibition, TMD-8 (CellTiter-Glo); type: cell-based; conditions: Homo sapiens, TMD8; TMD-8 cells, 72 h
Description: (§1) (1) Method • The tumor cell line (TMD-8/OCY-LY10) was suspended in RPMI1640+FBS10% and cultured in an incubator (37° C., 5% CO2). Cells were passaged periodically, and cells at logarithmic growth phase were collected for plating. • Cell staining was performed with trypan blue and viable cells were counted. • Cell concentration was adjusted to 7000 cells/well with medium. • 90 μL of cell suspension was added to a 96-well plate and cell-free culture medium was added to the blank control wells. • Cells in the 96-well plate were incubated overnight in an incubator (37° C., 5% CO2, 100% relative humidity). • Preparation of 400× compound storage plates: test compounds and reference drug were each dissolved in DMSO and 3× diluted from the highest concentration (400 μM) to the lowest concentration (0.61 μM). • Preparation of 10× compound working solutions: 78 μL of cell culture medium was added to a V-bottom 96-well plate, and 2 μL of the compound was pipetted from the 400× compound storage plate into the 96-well plate. Vehicle control wells and blank control wells were added with 2 μL of DMSO. […] Inhibition rates of compounds at different concentrations were calculated in Excel, followed by plotting the inhibition curves and calculating IC50 values with GraphPad Prism.

[2] = tested on: OCI-LY10; assay: In vitro tumor cell proliferation inhibition, OCI-LY10 (CellTiter-Glo); type: cell-based; conditions: Homo sapiens; OCI-LY10 cells, 72 h
Description: as §1

[3] = tested on: OCI-LY10 xenograft tumor; assay: OCI-LY10 xenograft tumor model; type: in vivo; conditions: intragastric 25 mg/kg once/day, day 28
Description: (§2) CB17/SCID female mice with serious immune deficiency were purchased from Beijing Vital River Laboratory Animal Technology Co., Ltd. and bred in SPF animal houses. Human OCI-LY10 cells (Shanghai Junrui-UFBN0102) were cultured in an RPMI 1640 culture medium containing 10% fetal bovine serum, 100 U/mL penicillin and 100 μg/mL streptomycin through monolayer culture in vitro in an incubator (37° C., 5% C02). Routine treatment was performed twice a week for passaging. At a cell saturation of 80%-90% and a required number, the cells were harvested and counted. 0.2 mL (1×10^7) of OCI-LY10 cells (together with matrigel at a volume ratio of 1:1) were subcutaneously inoculated into the right back of each mouse, and the tumor size could be measured about one week after inoculation. Tumor size was measured using a vernier caliper and tumor volume was calculated using the following formula: tumor volume=(length×width^2)/2.

[4] = tested on: TMD-8 xenograft tumor; assay: TMD-8 xenograft tumor model; type: in vivo; conditions: intragastric 25 mg/kg once/day
Description: as §2, with “TMD-8” for “OCI-LY10”, “Junrui-UFBN1682)” for “Junrui-UFBN0102)”

For `C=CC(=O)N1CCC[C@@H](n2nc(-c3ccc(Oc4ccccc4)cc3)c3c(N)ncnc32)C1` [Ibrutinib, ibrutinib, reference compound], the IC50 [1] was 0.4 nM, the IC50 [2] was 1.7 nM and the TGI [3] was 94%. It also gave a TGI [4] of 90%.
